Measured values taken from PubChem BioAssay (NCI).
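These data come from cells grown in 96-well plates and exposed to compound for 48 hours at five concentrations. TGI: total growth inhibition.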

Assays:
Test in all cases: NCI tumour cell line growth inhibition, 48 h
DMS 114 small cell lung = system: DMS 114 small cell lung
HOP-18 NSCLC = system: HOP-18 NSCLC
LXFL 529 NSCLC = system: LXFL 529 NSCLC
M19-MEL melanoma = system: M19-MEL melanoma
RXF-631 renal = system: RXF-631 renal
SNB-78 CNS = system: SNB-78 CNS
XF 498 CNS = system: XF 498 CNS
P388 leukemia = system: P388 leukemia
P388/ADR leukemia = system: P388/ADR leukemia
SN12K1 renal = system: SN12K1 renal

Row | SMILES | TGI (DMS 114 small cell lung) [µM] | TGI (HOP-18 NSCLC) [µM] | TGI (LXFL 529 NSCLC) [µM] | TGI (M19-MEL melanoma) [µM] | TGI (RXF-631 renal) [µM] | TGI (SNB-78 CNS) [µM] | TGI (XF 498 CNS) [µM] | TGI (P388 leukemia) [µM] | TGI (P388/ADR leukemia) [µM] | TGI (SN12K1 renal) [µM]
1 | CN(C)CCCNc1ccc2ncn3c4ccc(O)cc4c(=O)c1c23 | 16.7 | 27.4 | 17.7 | 15.3 | 12.2 | 26.6 | 19.6 | – | – | –
2 | C=CCCC1(C)CCCNC1=S (stereo not drawn) | > 100 | > 100 | – | – | – | – | > 100 | – | – | –
3 | COc1ccc(C2COc3c(ccc(O)c3C)C2)cc1OC (stereo not drawn) | 196 | 30.8 | – | > 200 | – | > 200 | 124 | > 125 | > 113 | 154
